Data: ChEMBL document CHEMBL1201862, “PubChem BioAssay data set” (2004)
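Exposure lasted 48 hours, with cells grown in 96-well plates and compounds tested at five concentrations. GI50 is the concentration that inhibits growth by half.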 Active and inactive are the calls of the source. Rule as the data show it: active = GI50 up to about 1.1 µM and inactive = higher. Where a SMILES comes first, the peptide text is derived from it. [ ]: non-standard residue; d: D form. Phe(F5) = N[CH](Cc1c(F)c(F)c(F)c(F)c1F)C(=O)O

Key:
Test in all cases: DTP human tumour cell line panel, 48 h
[1] = test system: 786-0
[2] = test system: A498
[3] = test system: A549
[4] = test system: ACHN
[5] = test system: CCRF-CEM
[6] = test system: COLO 205
[7] = test system: DMS-114
[8] = test system: DMS-273
[9] = test system: EKVX
[10] = test system: HCC 2998
[11] = test system: HCT-116
[12] = test system: HCT-15
[13] = test system: HL-60
[14] = test system: HOP-62
[15] = test system: HT-29
[16] = test system: IGROV-1
[17] = test system: K562
[18] = test system: KM12
[19] = test system: LOX IMVI
[20] = test system: LXFL 529
[21] = test system: M14
[22] = test system: M19-MEL
[23] = test system: MOLT-4
[24] = test system: Malme-3M
[25] = test system: NCI-H226
[26] = test system: NCI-H23
[27] = test system: NCI-H460
[28] = test system: NCI-H522
[29] = test system: OVCAR-3
[30] = test system: OVCAR-4
[31] = test system: OVCAR-5
[32] = test system: OVCAR-8
[33] = test system: RPMI-8226
[34] = test system: RXF 393
[35] = test system: RXF 631
[36] = test system: SF-268
[37] = test system: SF-295
[38] = test system: SF-539
[39] = test system: SK-MEL-28
[40] = test system: SK-MEL-2
[41] = test system: SK-MEL-5
[42] = test system: SK-OV-3
[43] = test system: SN12C
[44] = test system: SNB-19
[45] = test system: SNB-75
[46] = test system: SNB-78
[47] = test system: SR
[48] = test system: SW-620
[49] = test system: TK-10
[50] = test system: U-251
[51] = test system: UACC-257
[52] = test system: UACC-62
[53] = test system: UO-31
[54] = test system: CAKI-1
[55] = test system: DLD-1
[56] = test system: DU-145
[57] = test system: HOP-18
[58] = test system: Hs-578T
[59] = test system: KM-20L2
[60] = test system: MCF7
[61] = test system: MDA-MB-231
[62] = test system: MDA-MB-435
[63] = test system: MDA-N
[64] = test system: NCI/ADR-RES
[65] = test system: PC-3
[66] = test system: T47D
[67] = test system: XF498

## CCC(Oc1ccc(OC)c2ccccc(=O)c12)C(=O)O (stereo not drawn)
[1]
  GI50: > 100 µM (inactive)
[2]
  GI50: > 100 µM (inactive)
[3]
  GI50: > 100 µM (inactive)
[4]
  GI50: > 100 µM (inactive)
[5]
  GI50: > 100 µM (inactive)
[6]
  GI50: > 100 µM (inactive)
[7]
  GI50: > 100 µM (inactive)
[8]
  GI50: > 100 µM (inactive)
[9]
  GI50: > 100 µM (inactive)
[10]
  GI50: > 100 µM (inactive)
[11]
  GI50: > 100 µM (inactive)
[12]
  GI50: > 100 µM
[13]
  GI50: > 100 µM (inactive)
[14]
  GI50: > 100 µM (inactive)
[15]
  GI50: > 100 µM (inactive)
[16]
  GI50: > 100 µM (inactive)
[17]
  GI50: > 100 µM (inactive)
[18]
  GI50: > 100 µM (inactive)
[19]
  GI50: > 100 µM (inactive)
[20]
  GI50: > 100 µM (inactive)
[21]
  GI50: > 100 µM (inactive)
[22]
  GI50: > 100 µM (inactive)
[23]
  GI50: > 100 µM (inactive)
[24]
  GI50: > 100 µM (inactive)
[25]
  GI50: > 100 µM (inactive)
[26]
  GI50: > 100 µM (inactive)
[27]
  GI50: > 100 µM (inactive)
[28]
  GI50: > 100 µM (inactive)
[29]
  GI50: > 100 µM (inactive)
[30]
  GI50: > 100 µM (inactive)
[31]
  GI50: > 100 µM (inactive)
[32]
  GI50: > 100 µM (inactive)
[33]
  GI50: > 100 µM (inactive)
[34]
  GI50: > 100 µM (inactive)
[35]
  GI50: > 100 µM (inactive)
[36]
  GI50: > 100 µM (inactive)
[37]
  GI50: > 100 µM (inactive)
[38]
  GI50: > 100 µM (inactive)
[39]
  GI50: > 100 µM (inactive)
[40]
  GI50: > 100 µM (inactive)
[41]
  GI50: > 100 µM (inactive)
[42]
  GI50: > 100 µM (inactive)
[43]
  GI50: > 100 µM (inactive)
[44]
  GI50: > 100 µM (inactive)
[45]
  GI50: > 100 µM (inactive)
[46]
  GI50: > 100 µM (inactive)
[47]
  GI50: > 100 µM (inactive)
[48]
  GI50: > 100 µM (inactive)
[49]
  GI50: > 100 µM (inactive)
[50]
  GI50: > 100 µM (inactive)
[51]
  GI50: > 100 µM (inactive)
[52]
  GI50: > 100 µM (inactive)
[53]
  GI50: > 100 µM (inactive)

## COC(=O)C(CC(C)C)NC(=O)C(Cc1c[nH]cn1)NC(=O)CNC(=O)C(NC(=O)C(C)NC(=O)C(Cc1c[nH]c2ccccc12)NC(=O)C(CCC(=O)O)NC(=O)C(N)Cc1c(F)c(F)c(F)c(F)c1F)C(C)C (stereo not drawn) (H-[Phe(F5)]EWAVGHL-OMe; configuration not given here)
[1]
  GI50: > 12.5 µM (inactive)
[2]
  GI50: > 12.5 µM (inactive)
[3]
  GI50: > 12.5 µM (inactive)
[4]
  GI50: > 12.5 µM (inactive)
[54]
  GI50: > 12.5 µM (inactive)
[5]
  GI50: > 12.5 µM (inactive)
[6]
  GI50: > 12.5 µM (inactive)
[55]
  GI50: > 100 µM (inactive)
[7]
  GI50: > 100 µM (inactive)
[8]
  GI50: > 100 µM (inactive)
[56]
  GI50: > 12.5 µM (inactive)
[9]
  GI50: > 12.5 µM (inactive)
[10]
  GI50: > 12.5 µM (inactive)
[11]
  GI50: > 12.5 µM (inactive)
[12]
  GI50: > 12.5 µM
[13]
  GI50: > 12.5 µM (inactive)
[57]
  GI50: > 100 µM (inactive)
[14]
  GI50: > 12.5 µM (inactive)
[15]
  GI50: > 12.5 µM (inactive)
[58]
  GI50: > 12.5 µM (inactive)
[16]
  GI50: > 12.5 µM (inactive)
[17]
  GI50: > 12.5 µM (inactive)
[59]
  GI50: > 100 µM (inactive)
[18]
  GI50: > 12.5 µM (inactive)
[19]
  GI50: > 12.5 µM (inactive)
[20]
  GI50: > 100 µM (inactive)
[21]
  GI50: > 12.5 µM (inactive)
[22]
  GI50: > 100 µM (inactive)
[60]
  GI50: > 12.5 µM (inactive)
[61]
  GI50: > 12.5 µM (inactive)
[62]
  GI50: > 12.5 µM (inactive)
[63]
  GI50: > 12.5 µM (inactive)
[23]
  GI50: > 12.5 µM (inactive)
[24]
  GI50: > 12.5 µM (inactive)
[25]
  GI50: > 12.5 µM (inactive)
[26]
  GI50: > 12.5 µM (inactive)
[27]
  GI50: > 12.5 µM (inactive)
[28]
  GI50: > 12.5 µM (inactive)
[64]
  GI50: > 12.5 µM (inactive)
[29]
  GI50: > 12.5 µM (inactive)
[30]
  GI50: > 12.5 µM (inactive)
[31]
  GI50: > 12.5 µM (inactive)
[32]
  GI50: > 12.5 µM (inactive)
[65]
  GI50: > 12.5 µM (inactive)
[33]
  GI50: > 12.5 µM (inactive)
[34]
  GI50: > 12.5 µM (inactive)
[36]
  GI50: > 12.5 µM (inactive)
[37]
  GI50: > 12.5 µM (inactive)
[38]
  GI50: > 12.5 µM (inactive)
[39]
  GI50: > 12.5 µM (inactive)
[40]
  GI50: > 12.5 µM (inactive)
[41]
  GI50: > 12.5 µM (inactive)
[42]
  GI50: > 12.5 µM (inactive)
[43]
  GI50: > 12.5 µM (inactive)
[44]
  GI50: > 100 µM (inactive)
[45]
  GI50: > 100 µM (inactive)
[46]
  GI50: > 100 µM (inactive)
[47]
  GI50: > 12.5 µM (inactive)
[48]
  GI50: > 12.5 µM (inactive)
[66]
  GI50: > 12.5 µM (inactive)
[50]
  GI50: > 12.5 µM (inactive)
[51]
  GI50: > 12.5 µM (inactive)
[52]
  GI50: > 12.5 µM (inactive)
[53]
  GI50: > 12.5 µM (inactive)
[67]
  GI50: > 100 µM (inactive)
